Assay: xn = mol fraction of the nth substance listed
Conditions: 101 kPa

CC(O)C(=O)[O-].C[N+](C)(C)CCO + CCO
viscosity [mPa·s]
Conditions | x2 = 0 | x2 = 0.1039 | x2 = 0.2011 | x2 = 0.2996 | x2 = 0.3999 | x2 = 0.5003 | x2 = 0.601 | x2 = 0.7013 | x2 = 0.7987 | x2 = 0.8996
293.15 K | 818 | 553 | 365 | – | 132.5 | 73.48 | 39.35 | – | – | 3.602
298.15 K | 559 | 388 | 263.7 | 165.1 | 101.5 | 57.11 | 31.94 | 14.73 | – | 3.207
303.15 K | 393 | 277.4 | 193.2 | 123.9 | 78.06 | 45.19 | – | 12.36 | 6.351 | –
308.15 K | 283.9 | 203.7 | – | 94.9 | 61.01 | 36.35 | 21.38 | 10.49 | 5.524 | 2.548
313.15 K | 209.9 | 152.9 | 110.8 | 74.08 | 48.57 | 29.65 | 17.83 | 8.99 | 4.841 | 2.286
318.15 K | – | 117.2 | 86.3 | 58.82 | 39.27 | 24.51 | – | 7.773 | 4.27 | 2.059
323.15 K | 122.3 | – | 68.43 | 47.45 | 32.22 | – | 12.83 | 6.779 | – | 1.862
328.15 K | 95.9 | – | 55.07 | 38.8 | 26.76 | 17.33 | – | 5.952 | – | 1.685
333.15 K | 76.5 | – | 44.95 | 32.13 | 22.49 | 14.8 | – | 5.255 | 3.041 | 1.525
338.15 K | 61.9 | 47.9 | 37.15 | 26.9 | – | 12.76 | 8.445 | 4.66 | 2.747 | 1.38
343.15 K | 50.76 | 39.73 | 31.06 | 22.76 | 16.36 | 11.09 | 7.459 | 4.145 | 2.498 | 1.265

CC(O)C(=O)[O-].C[N+](C)(C)CCO + O
viscosity [mPa·s]
Conditions | x2 = 0 | x2 = 0.0992 | x2 = 0.2048 | x2 = 0.3008 | x2 = 0.4038 | x2 = 0.5026 | x2 = 0.5858 | x2 = 0.701 | x2 = 0.7993 | x2 = 0.8998
293.15 K | 818 | 620 | 478 | 375 | 259.2 | – | 117.8 | 59.52 | – | –
298.15 K | – | 433 | 336.9 | 266.4 | – | 128 | – | 45.76 | – | 6.185
303.15 K | 393 | – | 242.5 | 193.6 | 138.2 | 95.8 | 66.88 | 35.7 | 16.85 | 5.25
308.15 K | 283.9 | 225.3 | 178.9 | – | 104.4 | 73.36 | 51.91 | 28.36 | 13.79 | –
313.15 K | 209.9 | 168.3 | 134.9 | 107.7 | 80.45 | 57.24 | 41.04 | 22.9 | 11.44 | –
318.15 K | 158.7 | 128.4 | 103.9 | 85.2 | 63.16 | 45.5 | 32.99 | 18.78 | – | 3.405
323.15 K | 122.3 | 99.8 | 81.5 | 67.27 | 50.43 | 36.74 | 26.93 | – | – | 3.001
328.15 K | 95.9 | 78.9 | 64.95 | 54 | 40.89 | 30.11 | 22.29 | 13.14 | – | 2.666
333.15 K | 76.5 | 63.39 | – | – | 33.61 | 24.92 | 18.67 | – | 6.101 | 2.384
338.15 K | 61.9 | 51.63 | 43.1 | 36.28 | 27.97 | 20.93 | 15.82 | 9.621 | 5.323 | 2.146
343.15 K | 50.76 | 42.6 | 35.8 | 30.3 | 23.55 | 17.78 | 13.55 | 8.353 | 4.692 | 1.941
348.15 K | 42.13 | 35.55 | 30.05 | 25.59 | 20.05 | 15.25 | 11.71 | 7.305 | 4.171 | –
353.15 K | 35.38 | – | 25.52 | 21.82 | 17.22 | 13.2 | 10.2 | 6.438 | – | –
